Measurements reported in patent US12605423B2, “Peptide inhibitors targeting methyltransfer mechanism of SARS-CoV-2” (United Arab Emirates University, priority 2021, dated 2026).
Values after ≈ are worked out from the molar mass of the structure shown. “Also recorded” adds a separate entry of the source.

Key:
in vitro = settings: human, Cytotoxic Concentration (CC50), Caco-2 cells
IL-6 = assay type: cell-based; settings: 10 μM peptide, versus PBS control; for IL-6 induction: NCIH1792 (H1792) human lung cells

CC[C@H](C)[C@H](NC(=O)[C@H](Cc1c[nH]cn1)NC(=O)[C@H](CS)NC(=O)[C@H](CCCNC(=N)N)NC(=O)[C@H](CS)NC(=O)[C@H](Cc1ccc(O)cc1)NC(=O)[C@H](CC(C)C)NC(=O)[C@H](CS)NC(=O)[C@H](CS)NC(=O)[C@H](CO)NC(=O)[C@H](C)NC(=O)CNC(=O)CNC(=O)[C@H](Cc1ccccc1)NC(=O)CNC(=O)[C@H](CO)NC(=O)CNC(=O)[C@H](CCCNC(=N)N)NC(=O)[C@H](CCCNC(=N)N)NC(=O)[C@H](CCCNC(=N)N)NC(=O)[C@H](CCC(N)=O)NC(=O)[C@H](CCCNC(=N)N)NC(=O)[C@H](CCCNC(=N)N)NC(=O)[C@H](CCCCN)NC(=O)[C@H](CCCCN)NC(=O)[C@H](CCCNC(=N)N)NC(=O)CNC(=O)[C@H](Cc1ccc(O)cc1)NC(C)=O)C(=O)N[C@@H](CC(=O)O)C(=O)N[C@@H](Cc1c[nH]cn1)C(=O)N1CCC[C@H]1C(=O)N[C@@H](CC(N)=O)C(=O)N1CCC[C@H]1C(=O)N[C@@H](CCCCN)C(=O)NCC(=O)N[C@@H](Cc1ccccc1)C(=O)N[C@@H](CS)C(=O)N[C@@H](CC(=O)O)C(=O)N[C@@H](CC(C)C)C(=O)N[C@@H](CCCCN)C(=O)NCC(=O)N[C@@H](CCCCN)C(=O)N[C@@H](Cc1ccc(O)cc1)C(N)=O [Peptide P1]
CC50 (in vitro): 11 µg/mL (≈ 2.19 µM)
stimulation of the intrinsic secretion of IL-6 (IL-6; NCIH1792 (H1792) cells): more than 4 fold
IL-6 induction (IL-6): strongly increased IL-6 secretion; also recorded: profound induction of IL-6 secretion

YGRKKRRQRRRGSG [TAT sequence, reference compound]
IL-6 induction (IL-6): no increase in IL-6
